Measured values: ChEMBL document CHEMBL5360657, “Discovery of the TLR7/8 Antagonist MHV370 for Treatment of Systemic Autoimmune Diseases” (ACS Med Chem Lett, 2023)
≈ marks a conversion by molar mass, not a printed value.

Columns and labels:
Cytochrome P450 3A4 [1] = target: T1, Cytochrome P450 3A4 (Homo sapiens, UniProt P08684); assay: Time dependent inhibition of CYP3A4 (unknown origin) assessed as Kobs; format: ADME
[2] = Metabolic stability in mouse liver microsomes assessed as intrinsic clearance; format: ADME, Microsome; conditions: read-out: CLH
Toll-like receptor 8 = target: T2, Toll-like receptor 8 (Homo sapiens, UniProt Q9NR97); assay: Antagonist activity at TLR8 in human PBMC cells […] assessed as reduction in IL-6 level measured after 20 hrs by AlphaLISA assay; format: cell-based
T2 sequence (Q9NR97 whole entry): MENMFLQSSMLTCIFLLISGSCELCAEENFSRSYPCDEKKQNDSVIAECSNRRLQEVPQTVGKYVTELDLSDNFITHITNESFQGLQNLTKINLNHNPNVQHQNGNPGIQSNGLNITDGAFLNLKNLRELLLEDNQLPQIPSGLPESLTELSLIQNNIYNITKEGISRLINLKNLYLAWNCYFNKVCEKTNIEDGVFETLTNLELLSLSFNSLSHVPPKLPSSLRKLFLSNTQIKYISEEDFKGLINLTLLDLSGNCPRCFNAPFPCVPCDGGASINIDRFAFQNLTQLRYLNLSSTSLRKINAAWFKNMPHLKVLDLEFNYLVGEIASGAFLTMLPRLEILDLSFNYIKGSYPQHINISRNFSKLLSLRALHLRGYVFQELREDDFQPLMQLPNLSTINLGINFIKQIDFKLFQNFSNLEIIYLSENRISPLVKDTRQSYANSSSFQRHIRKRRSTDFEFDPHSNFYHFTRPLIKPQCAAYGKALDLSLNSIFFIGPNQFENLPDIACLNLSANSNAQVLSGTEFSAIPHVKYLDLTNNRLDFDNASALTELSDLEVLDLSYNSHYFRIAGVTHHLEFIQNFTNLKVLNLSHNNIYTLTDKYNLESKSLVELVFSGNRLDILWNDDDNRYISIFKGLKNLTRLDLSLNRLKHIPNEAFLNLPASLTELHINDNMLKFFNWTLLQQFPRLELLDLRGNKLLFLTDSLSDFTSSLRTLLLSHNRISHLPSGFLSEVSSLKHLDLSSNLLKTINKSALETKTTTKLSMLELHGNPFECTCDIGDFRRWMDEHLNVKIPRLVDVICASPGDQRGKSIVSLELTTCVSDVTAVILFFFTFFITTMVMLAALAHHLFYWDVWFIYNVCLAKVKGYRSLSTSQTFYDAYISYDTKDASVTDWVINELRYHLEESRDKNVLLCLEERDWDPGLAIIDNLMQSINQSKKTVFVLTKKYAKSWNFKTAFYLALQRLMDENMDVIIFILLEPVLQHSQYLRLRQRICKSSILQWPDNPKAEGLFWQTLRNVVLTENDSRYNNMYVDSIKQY

Toll-like receptor 7 = target: T3, Toll-like receptor 7 (Homo sapiens, UniProt Q9NYK1); assay: Antagonist activity at TLR7 in human PBMC cells assessed as reduction in IFN alpha measured after 20 hrs by AlphaLISA assay; format: cell-based
T3 sequence (Q9NYK1 whole entry): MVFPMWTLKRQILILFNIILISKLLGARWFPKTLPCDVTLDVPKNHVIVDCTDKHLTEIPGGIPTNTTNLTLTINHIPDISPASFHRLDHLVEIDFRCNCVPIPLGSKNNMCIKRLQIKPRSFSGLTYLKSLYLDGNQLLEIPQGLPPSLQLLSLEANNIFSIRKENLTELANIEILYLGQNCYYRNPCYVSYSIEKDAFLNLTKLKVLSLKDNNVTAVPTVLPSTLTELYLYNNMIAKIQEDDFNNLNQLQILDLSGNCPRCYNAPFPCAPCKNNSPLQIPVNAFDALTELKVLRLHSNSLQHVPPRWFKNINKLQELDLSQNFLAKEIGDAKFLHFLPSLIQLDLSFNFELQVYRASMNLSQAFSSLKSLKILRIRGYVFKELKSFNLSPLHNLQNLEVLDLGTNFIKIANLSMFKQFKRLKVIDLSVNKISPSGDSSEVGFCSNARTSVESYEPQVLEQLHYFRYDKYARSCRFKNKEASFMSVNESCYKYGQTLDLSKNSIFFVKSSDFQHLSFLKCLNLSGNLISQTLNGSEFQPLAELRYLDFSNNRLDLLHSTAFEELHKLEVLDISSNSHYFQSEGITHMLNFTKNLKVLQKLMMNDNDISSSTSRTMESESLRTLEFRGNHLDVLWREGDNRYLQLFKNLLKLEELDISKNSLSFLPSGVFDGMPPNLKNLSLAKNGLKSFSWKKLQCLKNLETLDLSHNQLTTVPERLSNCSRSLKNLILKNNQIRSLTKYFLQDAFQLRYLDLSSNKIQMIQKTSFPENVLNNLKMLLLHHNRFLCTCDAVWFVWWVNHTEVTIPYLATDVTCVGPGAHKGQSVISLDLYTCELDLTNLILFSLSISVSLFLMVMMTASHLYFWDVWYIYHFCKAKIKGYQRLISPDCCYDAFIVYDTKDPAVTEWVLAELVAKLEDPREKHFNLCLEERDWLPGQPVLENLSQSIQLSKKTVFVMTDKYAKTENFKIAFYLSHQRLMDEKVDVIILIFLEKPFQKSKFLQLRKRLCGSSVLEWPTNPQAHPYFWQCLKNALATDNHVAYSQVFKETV

Toll-like receptor 9 = target: T4, Toll-like receptor 9 (Homo sapiens, UniProt Q9NR96); assay: Antagonist activity at TLR9 in human PBMC cells assessed as reduction in IFN alpha measured after 20 hrs by AlphaLISA assay; format: cell-based
T4 sequence (Q9NR96 whole entry): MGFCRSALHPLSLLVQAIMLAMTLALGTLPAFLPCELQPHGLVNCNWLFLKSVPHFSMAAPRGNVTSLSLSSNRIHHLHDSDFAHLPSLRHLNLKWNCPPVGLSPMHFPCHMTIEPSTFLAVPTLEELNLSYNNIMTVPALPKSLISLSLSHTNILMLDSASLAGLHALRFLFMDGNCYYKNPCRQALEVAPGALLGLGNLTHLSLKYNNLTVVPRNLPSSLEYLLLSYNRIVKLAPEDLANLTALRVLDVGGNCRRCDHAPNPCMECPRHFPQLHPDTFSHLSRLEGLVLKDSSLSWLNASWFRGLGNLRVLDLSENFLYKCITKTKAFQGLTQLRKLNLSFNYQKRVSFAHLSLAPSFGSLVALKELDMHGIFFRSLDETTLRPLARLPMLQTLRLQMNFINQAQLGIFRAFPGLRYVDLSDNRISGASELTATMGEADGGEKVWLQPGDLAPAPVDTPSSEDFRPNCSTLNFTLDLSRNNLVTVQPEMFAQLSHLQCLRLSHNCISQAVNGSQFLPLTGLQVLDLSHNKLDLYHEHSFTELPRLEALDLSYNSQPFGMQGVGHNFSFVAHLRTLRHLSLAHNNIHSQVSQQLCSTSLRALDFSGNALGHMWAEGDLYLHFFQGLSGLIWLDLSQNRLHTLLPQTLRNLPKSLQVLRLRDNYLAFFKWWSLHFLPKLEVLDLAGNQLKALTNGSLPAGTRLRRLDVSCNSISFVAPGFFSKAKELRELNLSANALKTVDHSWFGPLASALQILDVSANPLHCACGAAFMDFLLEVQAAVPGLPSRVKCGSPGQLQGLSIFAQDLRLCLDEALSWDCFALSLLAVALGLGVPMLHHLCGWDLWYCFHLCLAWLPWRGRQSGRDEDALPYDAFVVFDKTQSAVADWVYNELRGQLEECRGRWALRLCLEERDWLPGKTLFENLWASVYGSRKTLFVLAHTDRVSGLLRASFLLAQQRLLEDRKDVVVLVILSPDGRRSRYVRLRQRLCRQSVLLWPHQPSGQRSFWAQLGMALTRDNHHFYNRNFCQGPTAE

[3] = Metabolic stability in rat liver microsomes assessed as intrinsic clearance; format: ADME, Microsome; conditions: read-out: CLH
[4] = Permeability of the compound by PAMPA; format: ADME
[5] = Metabolic stability in human liver microsomes assessed as intrinsic clearance; format: ADME, Microsome; conditions: read-out: CLH
Cytochrome P450 3A4 [6] = target: T1, Cytochrome P450 3A4; assay: Inhibition of CYP3A4 (unknown origin); format: ADME
[7] = target: Voltage-gated inwardly rectifying potassium channel KCNH2 (Homo sapiens, UniProt Q12809); assay: Displacement of [3H]-dofetilite from human ERG (unknown origin); format: toxicity
Sequence of Voltage-gated inwardly rectifying potassium channel KCNH2 (Q12809 whole entry): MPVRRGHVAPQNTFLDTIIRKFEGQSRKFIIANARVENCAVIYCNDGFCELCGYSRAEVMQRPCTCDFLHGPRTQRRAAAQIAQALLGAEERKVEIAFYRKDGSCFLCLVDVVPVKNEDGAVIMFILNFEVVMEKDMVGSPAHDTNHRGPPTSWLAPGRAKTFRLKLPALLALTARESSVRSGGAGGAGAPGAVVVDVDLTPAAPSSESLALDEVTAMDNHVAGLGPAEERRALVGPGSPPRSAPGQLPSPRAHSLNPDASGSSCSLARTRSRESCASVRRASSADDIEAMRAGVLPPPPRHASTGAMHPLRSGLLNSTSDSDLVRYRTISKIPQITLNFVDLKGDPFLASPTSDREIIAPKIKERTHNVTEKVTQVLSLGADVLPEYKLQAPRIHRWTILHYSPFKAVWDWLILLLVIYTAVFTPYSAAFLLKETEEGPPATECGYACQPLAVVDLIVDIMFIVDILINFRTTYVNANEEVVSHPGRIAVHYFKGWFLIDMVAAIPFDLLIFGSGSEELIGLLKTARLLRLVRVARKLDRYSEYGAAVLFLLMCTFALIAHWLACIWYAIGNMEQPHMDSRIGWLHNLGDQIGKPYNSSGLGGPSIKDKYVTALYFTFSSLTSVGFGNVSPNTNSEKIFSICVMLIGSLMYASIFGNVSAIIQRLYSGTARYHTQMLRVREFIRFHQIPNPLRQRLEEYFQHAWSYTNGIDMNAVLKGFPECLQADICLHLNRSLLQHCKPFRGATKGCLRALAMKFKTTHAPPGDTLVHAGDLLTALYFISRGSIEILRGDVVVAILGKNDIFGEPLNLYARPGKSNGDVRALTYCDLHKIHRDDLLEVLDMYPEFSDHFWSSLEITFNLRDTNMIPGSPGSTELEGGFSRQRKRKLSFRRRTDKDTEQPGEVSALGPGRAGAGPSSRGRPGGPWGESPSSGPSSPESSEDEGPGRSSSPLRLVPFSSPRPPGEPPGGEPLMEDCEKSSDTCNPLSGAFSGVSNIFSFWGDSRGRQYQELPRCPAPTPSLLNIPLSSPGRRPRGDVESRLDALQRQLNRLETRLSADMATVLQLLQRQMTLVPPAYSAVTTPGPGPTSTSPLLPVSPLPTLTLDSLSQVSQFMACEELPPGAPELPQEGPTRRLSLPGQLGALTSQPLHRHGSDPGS

[8] = Solubility of the compound; format: physicochemical
[9] = AUC in mouse at 1 mg/ml, iv; format: ADME; set-up: dose 1 mg/ml, route iv; conditions: in vivo
[10] = Oral bioavailability in mouse at 1 mg/ml; format: ADME, organism-based; conditions: in vivo
[11] = Cmax in rat at 1 mg/ml, po; format: ADME; set-up: dose 1 mg/ml, route po; conditions: in vivo
[12] = MRT in mouse at 1 mg/ml, po or iv; format: ADME, organism-based; conditions: in vivo
[13] = Cmax in mouse at 1 mg/ml, po; format: ADME; set-up: dose 1 mg/ml, route po; conditions: in vivo
[14] = AUC in rat at 1 mg/ml, po; format: ADME; set-up: dose 1 mg/ml, route po; conditions: in vivo
[15] = Oral bioavailability in rat at 1 mg/ml; format: ADME, organism-based; conditions: in vivo
[16] = Volume of distribution at steady state in rat at 1 mg/ml, po or iv; format: ADME, organism-based; conditions: in vivo
[17] = MRT in rat at 1 mg/ml, po or iv; format: ADME, organism-based; conditions: in vivo
[18] = AUC in mouse at 1 mg/ml, po; format: ADME; set-up: dose 1 mg/ml, route po; conditions: in vivo
[19] = Volume of distribution at steady state in mouse at 1 mg/ml, po or iv; format: ADME, organism-based; conditions: in vivo
[20] = AUC in rat at 1 mg/ml, iv; format: ADME; set-up: dose 1 mg/ml, route iv; conditions: in vivo

T1 sequence (P08684 whole entry): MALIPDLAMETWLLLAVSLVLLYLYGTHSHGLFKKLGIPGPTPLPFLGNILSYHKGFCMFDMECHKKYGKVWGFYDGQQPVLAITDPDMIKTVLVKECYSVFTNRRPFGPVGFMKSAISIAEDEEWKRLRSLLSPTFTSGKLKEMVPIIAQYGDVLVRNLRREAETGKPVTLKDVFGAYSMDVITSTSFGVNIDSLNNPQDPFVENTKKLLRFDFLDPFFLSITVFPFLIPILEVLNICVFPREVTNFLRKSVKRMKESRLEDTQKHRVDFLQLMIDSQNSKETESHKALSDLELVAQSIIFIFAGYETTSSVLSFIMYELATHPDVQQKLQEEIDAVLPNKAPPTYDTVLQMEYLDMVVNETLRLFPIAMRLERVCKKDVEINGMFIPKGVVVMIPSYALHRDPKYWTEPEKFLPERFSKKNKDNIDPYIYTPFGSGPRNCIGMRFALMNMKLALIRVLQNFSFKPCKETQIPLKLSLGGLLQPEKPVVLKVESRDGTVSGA

Structure (SMILES)	Kobs (Cytochrome P450 3A4 [1]) [min⁻¹]	microsomal CLint [2] [µL/min/mg]	IC50 (Toll-like receptor 8) [nM]	IC50 (Toll-like receptor 7) [nM]	IC50 (Toll-like receptor 9) [nM]	microsomal CLint [3] [µL/min/mg]	log(permeability) [4]	microsomal CLint [5] [µL/min/mg]	IC50 (Cytochrome P450 3A4 [6]) [nM]	solubility [8] [µM]	IC50 [7] [nM]	further results
Cc1cc(N2CCc3c(c(C)nn3CC34CCC(N(C)C)(CC3)CC4)C2)c2cnn(C)c2n1	0.032	33	160	9	710	36	-4.6	34	> 50000	> 175	> 30000	–
CNC12CCC(Cn3nc(C)c4c3CCN(c3cc(C)nc5c3cnn5C)C4)(CC1)CC2	0.008	28	330	7	440	< 15	-5.3	< 15	> 50000	> 175	> 30000	–
Cc1cc(N2CCc3c(c(C)nn3CC34CCC(NC5CCC5)(CC3)CC4)C2)c2cnn(C)c2n1	0.037	77	71	–	550	28	-4.2	52	28000	> 175	25000	–
CN[C@@H](C)C(=O)NC12CCC(Cn3nc(C)c4c3CCN(c3cc(C)nc5c3cnn5C)C4)(CC1)CC2	0.022	42	190	–	700	34	-5.3	< 15	> 50000	–	> 30000	AUC [9]: 1.79 µM·h; bioavailability [10]: 26%; Cmax [11]: 31 nM; MRT [12]: 1.6 h; Cmax [13]: 237 nM; AUC [14]: 0.483 µM·h; bioavailability [15]: 9%; Vdss [16]: 2 L/kg; MRT [17]: 1.6 h; AUC [18]: 2.34 µM·h; Vdss [19]: 3.5 L/kg; AUC [20]: 1.78 µM·h

Continued, in another order:

Kobs (Cytochrome P450 3A4 [1]) [min⁻¹]	microsomal CLint [2] [µL/min/mg]	IC50 (Toll-like receptor 8) [nM]	IC50 (Toll-like receptor 7) [nM]	IC50 (Toll-like receptor 9) [nM]	microsomal CLint [3] [µL/min/mg]	log(permeability) [4]	microsomal CLint [5] [µL/min/mg]	IC50 (Cytochrome P450 3A4 [6]) [nM]	solubility [8] [µM]	Structure (SMILES)	IC50 [7] [nM]	further results
0.031	440	20	10	1500	55	-3.9	130	> 50000	> 175	Cc1cc(N2CCc3c(c(C)nn3CC34CCC(N5C[C@@H](C)O[C@@H](C)C5)(CC3)CC4)C2)c2cnn(C)c2n1	> 30000	–
0.038	246	30	–	2100	175	-4.1	130	> 50000	> 175	Cc1cc(N2CCc3c(c(C)nn3CC34CCC(N5CCOCC5)(CC3)CC4)C2)c2cnn(C)c2n1	> 30000	–
–	< 15	50	10	350	< 15	-4.8	27	–	> 175	COCCNC12CCC(Cn3nc(C)c4c3CCN(c3cc(C)nc5c3cnn5C)C4)(CC1)CC2	22000	–
0.021	–	> 10000	8	> 10000	78	-4.8	107	> 50000	120 (≈ 59.7 µg/mL)	Cc1cc(N2CCc3c(c(C)nn3CC34CCC(NS(C)(=O)=O)(CC3)CC4)C2)c2cnn(C)c2n1	> 30000	–
0.009	60	180	30	970	67	-4.5	57	33000	> 175	Cc1cc(N2CCc3c(c(C)nn3CC34CCC(NC5COC5)(CC3)CC4)C2)c2cnn(C)c2n1	> 30000	–
